The text below walks through data of PubChem BioAssay (NCI).

Common to all, as to assay: inhibition of tumour cell growth, NCI panel, 48 h
Test [1] deals with 786-0 renal.
Test [2] deals with A549 NSCLC.
Test [3] has as its system COLO 205 colon.
Test [4] has as its system DU-145 prostate.
Test [5] has as its system HCC-2998 colon.
The test system of test [6] is HS 578T breast.
In test [7] the test system is MALME-3M melanoma.
Test [8] relates to MCF7 breast.
Test [9] deals with MDA-MB-435.
Test [10] concerns MOLT-4 leukemia.
Test [11] has as its system PC-3 prostate.
In test [12] the test system is SK-MEL-28 melanoma.
Test [13] relates to SN12C renal.
Test [14] concerns SNB-75 CNS.
In test [15] the test system is SW-620 colon.
Test [16] has as its system UACC-62 melanoma.
The subject of test [17] is NCI-H522 lung.
The test system of test [18] is OVCAR-4 ovarian.
Test [19] concerns RPMI-8226 leukemia.

Structures are written as SMILES. Values joined by “and” are separate entries in the source; they are usually repeats but may differ in a detail not shown here. Identical values can stand only once.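 Results reflect a 48-hour exposure of cells in 96-well plates to compound at five concentrations. GI50: concentration for 50% inhibition of growth. The concentration for full growth arrest is given as TGI.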

With `Cn1c(COC(=O)NC2CCCCC2)c(COC(=O)NC2CCCCC2)c2ccc3cc(Cl)c(Cl)cc3c21`, the TGI in [1] was 30.3 µM; in test [2], more than 100 µM; in test [3], 24.6 µM; in [4], 84.7 µM; in [5] it was 26.6 µM; in [6], 23.6 µM. Also, the TGI in [7] worked out at 25.9 µM; in test [8], 16.9 µM; in test [9] it was 49.4 µM; in [10], 54.4 µM; in test [11] it was 32.9 µM; in test [12] it was 50.2 µM. Besides, the TGI is 23.9 µM in test [13], 27.8 µM in test [14], 32.8 µM in test [15] and 24.1 µM in test [16].

`Cc1nnc2sc(-c3ccc(-c4ccccc4Cl)o3)nn12`: the TGI in test [1] was 80.1 µM; in test [2], more than 100 µM; in [3] it was more than 100 µM; in test [4] it was more than 100 µM; in test [5], 64.4 µM; in [6] it was more than 100 µM. Besides, the TGI in test [7] is more than 100 µM; in [8] it was more than 100 µM; in test [9] it was 44 µM; in test [10], 51.1 µM; in test [17] it was 78.4 µM; in test [18], more than 100 µM. The TGI in test [11] is more than 100 µM; in test [19], 60 µM; in test [13], more than 100 µM; in [15], more than 100 µM; in [16], more than 100 µM.

For `CCN1C(=O)C(=Cc2ccc(-c3ccccc3)cc2)C(=O)N(CC)C1=S`, the TGI in [1], in [2], in test [3], in test [4], in [5] and in test [6] was more than 100 µM in each case. For the same compound, the TGI in test [7], in test [8], in test [9], in test [10], in test [18] and in test [11] was more than 100 µM in each case. Moreover, the TGI in test [19], in test [12], in test [13], in test [14], in [15] and in test [16] was more than 100 µM each time.

Consider `CCOC(=O)C(NC(=O)NC(C(=O)OCC)C(=O)OCC)C(=O)OCC`, for which the TGI in [1], in test [2], in test [4], in [5], in test [6] and in [7] was more than 100 µM throughout. Besides, the TGI in [8], in test [9], in [10], in test [17], in test [11] and in [19] was more than 100 µM in each case. In addition, the TGI in test [12], in test [13], in test [15] and in [16] was more than 100 µM throughout.

On to `O=C1N[C@@H]([C@H](CCCCCO)OC(=O)c2ccccc2)CO1`, for which the TGI in [1], in test [2], in test [4], in test [6], in test [8] and in [9] was more than 100 µM each time. Besides, the TGI in test [10], in test [18], in test [11], in test [19], in [12] and in test [13] was more than 100 µM each time. Also, the TGI in test [14], in test [15] and in [16] was more than 100 µM in each case.

Take `COC1OC(COC(=O)NCCCCC(=O)C(F)(F)F)C(O)C(O)C1O` (stereo unspecified): the TGI in test [1], in test [2], in [3], in test [4], in [5] and in [6] was more than 100 µM in each case. In addition, the TGI in test [7], in test [8], in [9], in [10], in test [18] and in test [11] was more than 100 µM in each case. Further, the TGI in test [19], in test [12], in test [13], in test [14], in [15] and in test [16] was more than 100 µM in each case.

As to `COc1ccc(-c2c(C#N)c(S)n(C3OC(CO)C(O)C(O)C3O)c(=O)c2C#N)cc1` (stereo unspecified), the TGI in test [1], in [2], in test [4], in test [5], in test [6] and in [7] was more than 100 µM throughout. In addition, the TGI in test [8], in test [9], in [10], in [17], in test [11] and in [19] was more than 100 µM each time. The TGI in test [12], in test [13], in [14], in test [15] and in [16] was more than 100 µM each time. In test [6], the GI50 was 37.3 µM and > 100 µM.

Take `NC1CNC(=O)c2cscc21` (stereo unspecified): the TGI in [1], in [2], in [3], in test [4], in test [5] and in test [6] was more than 100 µM throughout. For the same compound, the TGI in test [7], in [8], in test [9], in test [10], in test [17] and in [18] was more than 100 µM throughout. Further, the TGI in test [11], in test [19], in test [12], in test [13], in test [15] and in test [16] was more than 100 µM in each case.
